The results in this text go back to paper PMC6214812, “The mycosporine-like amino acids porphyra-334 and shinorine are antioxidants and direct antagonists of Keap1-Nrf2 binding” (Biochimie, 2018).

The target in assay [1] is T1, Kelch-like ECH-associated protein 1 (Keap1) (Homo sapiens, UniProt Q14145).
T1 construct: Kelch-repeat domain
Briefly: FP competition with FITC-(βAla)-DEETGEF-OH; thermal shift (ΔTm […] °C at […]). It counts as binding.

The target of assay [2] is T1, Kelch-like ECH-associated protein 1 (Keap1). The assay is described as above. It counts as binding. This is another data set of the same source.

For orientation: pIC50 means the IC50 on a negative log10 scale, so that one unit is a factor of ten.

pIC50: −log10 of the molar value. Like-named read-outs stand apart in the source and are kept apart here.

T1 sequence (Q14145 321-609 limits assumed): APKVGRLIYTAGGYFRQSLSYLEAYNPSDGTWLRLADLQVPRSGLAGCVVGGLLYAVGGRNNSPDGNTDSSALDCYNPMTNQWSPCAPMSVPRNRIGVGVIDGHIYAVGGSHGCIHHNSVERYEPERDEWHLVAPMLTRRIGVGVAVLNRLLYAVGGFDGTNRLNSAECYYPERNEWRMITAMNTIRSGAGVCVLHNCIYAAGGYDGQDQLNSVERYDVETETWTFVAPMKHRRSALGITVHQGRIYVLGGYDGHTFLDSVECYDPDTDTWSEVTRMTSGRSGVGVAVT

For `COC1=C(NCC(=O)O)C[C@@](O)(CO)C/C1=N\[C@@H](CO)C(=O)O` [shinorine], in assay [1], the pIC50 was ~4.00.

For the molecule `COC1=C(NCC(=O)O)CC(O)(CO)CC1=NC(C(=O)O)C(C)O` (centres unmarked) [porphyra-334], the negative logarithm of the IC50 (pIC50) in assay [2] is ~4.00.
